The target in the experiment is T1, UGT94D1 (Sesamum indicum, UniProt A0A6I9T8N3, F119I/D188P).
T1 construct: gene LOC105161042; full ORF, synthetic codon-optimised gene; Ni-NTA purified and desalted
As to the kind of experiment: UPLC glucosylation assay, […] h turnover. It counts as biochemical. As to conditions: 0.5 mM Reb D, 5 mM UDPG, 10 mM MnCl2, 50 mM Tris-HCl pH 8.0, 35 °C.

Here are results for one compound from article PMC10875103, “Selective synthesis of rebaudioside M2 through structure-guided engineering of glycosyltransferase UGT94D1” (Frontiers in Bioengineering and Biotechnology, 2024).

T1 sequence (A0A6I9T8N3 entry or part of it F119I/D188P): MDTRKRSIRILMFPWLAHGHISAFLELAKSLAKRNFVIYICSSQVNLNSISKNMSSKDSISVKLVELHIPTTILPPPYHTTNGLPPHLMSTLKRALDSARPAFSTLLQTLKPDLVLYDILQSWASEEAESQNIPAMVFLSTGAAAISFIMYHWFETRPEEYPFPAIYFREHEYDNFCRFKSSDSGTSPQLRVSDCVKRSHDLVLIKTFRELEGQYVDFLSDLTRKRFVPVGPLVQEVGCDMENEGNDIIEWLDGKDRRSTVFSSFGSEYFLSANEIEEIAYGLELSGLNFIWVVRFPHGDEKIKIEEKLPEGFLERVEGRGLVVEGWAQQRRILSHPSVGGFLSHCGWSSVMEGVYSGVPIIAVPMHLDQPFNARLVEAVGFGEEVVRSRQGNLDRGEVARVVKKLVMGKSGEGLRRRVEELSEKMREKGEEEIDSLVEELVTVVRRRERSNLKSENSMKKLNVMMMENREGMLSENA

On to `C=C1C[C@@]23CC[C@H]4[C@@](C)(CCC[C@@]4(C)C(=O)O[C@@H]4O[C@H](CO)[C@@H](O)[C@H](O)[C@H]4O[C@@H]4O[C@H](CO)[C@@H](O)[C@H](O)[C@H]4O)[C@@H]2CC[C@]1(O[C@@H]1O[C@H](CO)[C@@H](O)[C@H](O[C@@H]2O[C@H](CO)[C@@H](O)[C@H](O)[C@H]2O)[C@H]1O[C@@H]1O[C@H](CO)[C@@H](O)[C@H](O)[C@H]1O)C3` [rebaudioside D], for which the relative activity result was “catalytic activities of mutants F119I/D188P and F119P/D188P were further improved”.
